Laboratory results from publication PMC7403315, “Cyclic peptide FXII inhibitor provides safe anticoagulation in a thrombosis model and in artificial lungs” (Nature Communications, 2020).
Where “and” joins values, the source holds several entries; their conditions need not be identical. Equal entries are not always repeated. Starred links: 1 amine or outer side, 2 acyl side, 3 side chain; linkers in the order of their positions; H or OH if unused. Positions of bridges follow the written chain, without caps; N, C: chain ends. Non-standard residues stand in square brackets, D forms with d. Residues, ends and D or L forms follow the SMILES beside them. TATA = O=C(CC[*:1])N1CN(C(=O)CC[*:2])CN(C(=O)CC[*:3])C1; Phe(4-F) = N[C@@H](Cc1ccc(F)cc1)C(=O)O; β3hR = N=C(N)NCCC[C@H](N)CC(=O)O

What was measured:
Format in all cases: biochemical
thrombin = biological target: T1, thrombin (Homo sapiens, UniProt P00734); experiment: Specificity profiling, residual protease activity
T1 construct: nM, thrombin (Molecular Innovations) 1 nM, plasmin (Molecular Innovations) 2.5 nM, trypsin; purchased Molecular Innovations
Experimental: (§1) Protease inhibition assays
(§2) The inhibitory activity of peptides was determined by measuring the residual protease activity with a fluorogenic substrate. The assay was performed in buffer containing 10 mM Tris-Cl, pH […]
(§3) 1% (v/v) DMSO in a volume of 150 µl. […]
(§4) HFXIIAB) were used at final concentrations of 0.4 nM. The reaction was pipetted as follows: 50 µl of bicyclic peptide in assay buffer were added to 50 µl of FXIIa in assay buffer and incubated for 10 minutes at 25°C before 50 µl of 150 µM fluorogenic substrate in assay buffer were added to measure the residual protease activity with an Infinite M200Pro fluorescence plate reader (excitation at 368 nm, emission at 467 nm; Tecan) for a period of 30 minutes with a read every minute at 25°C. The Tecan software i-control (version 1.1) was used for data analysis. Stock solutions of 1 mM bicyclic peptide were prepared by either dissolving the unpurified cyclization reaction with water or by dissolving purified and lyophilized peptide in water. The bicyclic peptides were serially diluted two-fold using assay buffer. Sigmoidal curves were fitted to the data using the following dose response equation (1), wherein x = peptide concentration, y = % protease activity, and p = Hill slope. IC50 values were derived from the fitted curve.
(§5) The inhibition constants (Ki) were calculated according to the equation of Cheng and Prusoff, Ki = IC50/(1+([S]0/Km), wherein IC50 is the functional strength of the inhibitor, [S]0 is the total substrate concentration, and Km is the Michaelis-Menten constant. […]
(§6) For testing the specificity of the bicyclic peptides, the following final concentrations of human serine proteases were used: tPA (Molecular Innovations) 7.5 nM, uPA (Molecular Innovations) 1.5 nM, factor XIa (Innovative Research) 6 nM, plasma kallikrein (Innovative Research) 0.25 nM, thrombin (Molecular Innovations) 1 nM, plasmin (Molecular Innovations) 2.5 nM, trypsin (Molecular Innovations) 0.05 nM, factor VIIa (Haematologic Technologies) 50 nM, factor Xa […]
(§7) (Haematologic Technologies) 6 nM, and activated protein C (APC) 5 nM. Two-fold dilutions of the peptide were prepared that ranged from 0.04 to 40 µM. The following fluorogenic substrates were used at a final concentration of 50 µM: Z-Phe-Arg-AMC (Bachem) for plasma kallikrein; Boc-Phe-Ser-Arg-AMC (Bachem) for factor XIa; Z-Gly-Gly-Arg-AMC (Bachem) for tPA, uPA, thrombin, and trypsin; H-D-Val-Leu-Lys-AMC (Bachem) for plasmin; and D-Phe-Pro-Arg-ANSNH-C4H9 (Haematologic Technologies) for FVIIa and FXa. For APC, the chromogenic substrate pyroGlu-Pro-Arg-pNA (S2366) was used at a concentration of 400 µM. […]

uPA = biological target: T2, uPA (Homo sapiens, UniProt P00749); experiment: Specificity profiling, residual protease activity
T2 construct: purchased Molecular Innovations
Experimental: as §1, §2, §3, §4, §5, §6, §7

plasmin = biological target: T3, plasmin (Homo sapiens, UniProt P00747); experiment: Specificity profiling, residual protease activity
T3 construct: nM, thrombin (Molecular Innovations) 1 nM, plasmin (Molecular Innovations) 2.5 nM, trypsin; purchased Molecular Innovations
Experimental: as §1, §2, §3, §4, §5, §6, §7

[1] = biological target: activated protein C (APC) (Homo sapiens, UniProt P04070); experiment: Specificity profiling, residual protease activity (chromogenic substrate)
Experimental: as §1, §2, §3, §4, §5, §6, §7

[2] = inhibitor 39.0625 nM, 0.0390625 µM
[3] = inhibitor 78.125 nM, 0.078125 µM
[4] = inhibitor 156.25 nM, 0.15625 µM
[5] = inhibitor 40000 nM (40 µM), 40 µM

T3 sequence (P00747 581-810 limits assumed): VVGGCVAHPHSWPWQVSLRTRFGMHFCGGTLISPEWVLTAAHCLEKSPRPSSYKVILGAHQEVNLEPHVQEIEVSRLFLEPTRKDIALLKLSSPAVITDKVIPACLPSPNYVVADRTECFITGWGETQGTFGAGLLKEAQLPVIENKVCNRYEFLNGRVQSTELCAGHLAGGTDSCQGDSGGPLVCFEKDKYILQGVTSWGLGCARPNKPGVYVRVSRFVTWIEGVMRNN
T3 sequence (P00747 97-580 limits assumed): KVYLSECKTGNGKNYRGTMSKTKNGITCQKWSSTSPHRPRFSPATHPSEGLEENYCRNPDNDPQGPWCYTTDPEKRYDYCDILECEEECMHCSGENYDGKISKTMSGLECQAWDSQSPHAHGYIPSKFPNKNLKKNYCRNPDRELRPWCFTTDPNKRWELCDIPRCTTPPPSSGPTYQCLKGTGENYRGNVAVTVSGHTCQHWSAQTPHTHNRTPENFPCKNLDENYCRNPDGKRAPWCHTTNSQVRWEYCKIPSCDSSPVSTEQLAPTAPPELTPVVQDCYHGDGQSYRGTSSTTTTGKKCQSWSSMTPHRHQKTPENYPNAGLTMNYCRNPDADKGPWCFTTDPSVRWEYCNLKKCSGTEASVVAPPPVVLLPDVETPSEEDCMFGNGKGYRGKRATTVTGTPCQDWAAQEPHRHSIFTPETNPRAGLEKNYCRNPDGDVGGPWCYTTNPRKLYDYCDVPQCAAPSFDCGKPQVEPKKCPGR
Chain of activated protein C (APC) (P04070 212-461 limits assumed): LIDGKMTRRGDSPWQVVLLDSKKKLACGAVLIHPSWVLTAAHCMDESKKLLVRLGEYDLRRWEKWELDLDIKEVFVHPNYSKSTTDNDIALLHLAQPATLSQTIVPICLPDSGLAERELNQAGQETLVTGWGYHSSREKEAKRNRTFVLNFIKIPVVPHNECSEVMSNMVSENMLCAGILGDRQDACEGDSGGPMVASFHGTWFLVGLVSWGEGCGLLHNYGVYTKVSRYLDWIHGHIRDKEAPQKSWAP
Chain of activated protein C (APC) (P04070 43-197 limits assumed): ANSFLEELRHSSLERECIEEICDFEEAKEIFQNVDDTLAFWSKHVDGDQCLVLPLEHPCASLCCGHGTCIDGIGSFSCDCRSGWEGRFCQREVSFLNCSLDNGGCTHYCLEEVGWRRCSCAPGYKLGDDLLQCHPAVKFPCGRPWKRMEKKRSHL

Structure (SMILES): CC(C)C[C@@H]1NC(=O)[C@H](CCC(N)=O)NC(=O)[C@H](Cc2c[nH]cn2)NC(=O)[C@@H]2CSCCC(=O)N3CN(CN(C3)C(=O)CCSC[C@H](NC(=O)[C@@H](CO)NC(=O)[C@H](N)CCCNC(=N)N)C(=O)N[C@@H](Cc3ccc(F)cc3)C(=O)N[C@@H](CCCNC(=N)N)C(=O)N[C@@H](CC(C)C)C(=O)N3CCC[C@H]3C(=O)N2)C(=O)CCSC[C@@H](C(N)=O)NC(=O)C[C@H](CCCNC(=N)N)NC1=O [FXII900] (H-[dR][dS]C[Phe(4-F)]RLPCHQL[β3hR]C-NH2; linker 3-8-13 via TATA)
- Ki (thrombin): > 40 µM
- remaining activity at 0.0390625 µM (thrombin; inhibitor 39.0625 nM): 101%
- Residual activity of Thrombin (thrombin; [2]): 100%
- remaining activity at 0.078125 µM (thrombin; inhibitor 78.125 nM): 103%
- Residual activity of Thrombin (thrombin; [3]): 98.3135%
- remaining activity at 0.15625 µM (thrombin; inhibitor 156.25 nM): 105%
- Residual activity of Thrombin (thrombin; [4]): 102.594%
- remaining activity at 0.3125 µM (thrombin; inhibitor 312.5 nM): 104%
- Residual activity of Thrombin (thrombin; inhibitor 312.5 nM, 0.3125 µM): 101.218%
- remaining activity at 0.625 µM (thrombin; inhibitor 625 nM): 102%
- Residual activity of Thrombin (thrombin; inhibitor 625 nM, 0.625 µM): 96.4184%
- remaining activity at 1.25 µM (thrombin; inhibitor 1250 nM): 105%
- Residual activity of Thrombin (thrombin; inhibitor 1250 nM, 1.25 µM): 102.09%
- remaining activity at […] (thrombin; inhibitor 2500 nM): 103%
- Residual activity of Thrombin (thrombin; inhibitor 2500 nM, […]): 101.007%
- remaining activity at 5 µM (thrombin; inhibitor 5000 nM): 105%
- Residual activity of Thrombin (thrombin; inhibitor 5000 nM, 5 µM): 93.4869%
- remaining activity at 10 µM (thrombin; inhibitor 10000 nM): 99%
- Residual activity of Thrombin (thrombin; inhibitor 10000 nM, 10 µM): 98.045%
- remaining activity at 20 µM (thrombin; inhibitor 20000 nM): 102%
- Residual activity of Thrombin (thrombin; inhibitor 20000 nM, 20 µM): 95.8152%
- remaining activity at 40 µM (thrombin; inhibitor 40000 nM (40 µM)): 95%
- Residual activity of Thrombin (thrombin; [5]): 99.0803% and 90.0661%
- Ki (uPA): > 40 µM
- remaining activity at 0.0390625 µM (uPA; inhibitor 39.0625 nM): 96.1%
- Residual activity of uPa (uPA; [2]): 99.3438%
- remaining activity at 0.078125 µM (uPA; inhibitor 78.125 nM): 94.9%
- Residual activity of uPa (uPA; [3]): 99.5842%
- remaining activity at 0.15625 µM (uPA; inhibitor 156.25 nM): 99.6%
- Residual activity of uPa (uPA; [4]): 106.929%
- remaining activity at 0.3125 µM (uPA; inhibitor 312.5 nM): 98.2%
- Residual activity of uPa (uPA; inhibitor 312.5 nM, 0.3125 µM): 103.987%
- remaining activity at 0.625 µM (uPA; inhibitor 625 nM): 98.8%
- Residual activity of uPa (uPA; inhibitor 625 nM, 0.625 µM): 103.035%
- remaining activity at 1.25 µM (uPA; inhibitor 1250 nM): 100%
- Residual activity of uPa (uPA; inhibitor 1250 nM, 1.25 µM): 106.211%
- remaining activity at […] (uPA; inhibitor 2500 nM): 101%
- Residual activity of uPa (uPA; inhibitor 2500 nM, […]): 90.2133%
- remaining activity at 5 µM (uPA; inhibitor 5000 nM): 99.4%
- Residual activity of uPa (uPA; inhibitor 5000 nM, 5 µM): 106.237%
- remaining activity at 10 µM (uPA; inhibitor 10000 nM): 96.6%
- Residual activity of uPa (uPA; inhibitor 10000 nM, 10 µM): 102.075%
- remaining activity at 20 µM (uPA; inhibitor 20000 nM): 96.3%
- Residual activity of uPa (uPA; inhibitor 20000 nM, 20 µM): 101.698%
- remaining activity at 40 µM (uPA; inhibitor 40000 nM (40 µM)): 98.7%
- Residual activity of uPa (uPA; [5]): 97.4594% and 105.626%
- Ki (plasmin): > 40 µM
- remaining activity at 0.0390625 µM (plasmin; inhibitor 39.0625 nM): 101%
- Residual activity of Plasmin (plasmin; [2]): 100% and 98.04%
- remaining activity at 0.078125 µM (plasmin; inhibitor 78.125 nM): 99.7%
- Residual activity of Plasmin (plasmin; [3]): 92.966% and 98.2808%
- remaining activity at 0.15625 µM (plasmin; inhibitor 156.25 nM): 99.4%
- Residual activity of Plasmin (plasmin; [4]): 100.413% and 98.2682%
- remaining activity at 0.3125 µM (plasmin; inhibitor 312.5 nM): 98.2%
- Residual activity of Plasmin (plasmin; inhibitor 312.5 nM, 0.3125 µM): 95.1408% and 95.4545%
- remaining activity at 0.625 µM (plasmin; inhibitor 625 nM): 98.8%
- Residual activity of Plasmin (plasmin; inhibitor 625 nM, 0.625 µM): 96.2495% and 97.8119%
- remaining activity at 1.25 µM (plasmin; inhibitor 1250 nM): 95.1%
- Residual activity of Plasmin (plasmin; inhibitor 1250 nM, 1.25 µM): 99.629% and 97.1835%
- remaining activity at […] (plasmin; inhibitor 2500 nM): 92%
- remaining activity at 5 µM (plasmin; inhibitor 5000 nM): 96%
- Residual activity of Plasmin (plasmin; inhibitor 5000 nM, 5 µM): 97.8045% and 97.3192%
- remaining activity at 10 µM (plasmin; inhibitor 10000 nM): 93.7%
- Residual activity of Plasmin (plasmin; inhibitor 10000 nM, 10 µM): 101.477% and 94.8276%
- remaining activity at 20 µM (plasmin; inhibitor 20000 nM): 87.5%
- Residual activity of Plasmin (plasmin; inhibitor 20000 nM, 20 µM): 91.7224% and 90.5875%
- remaining activity at 40 µM (plasmin; inhibitor 40000 nM (40 µM)): 86 ± 5%
- Residual activity of Plasmin (plasmin; [5]): 82.6102% and 91.6986% and 84.2986%
- Ki [1]: > 40 µM
- remaining activity at 0.0390625 µM ([1]; inhibitor 39.0625 nM): 98.1%
- Residual activity of APC [1, 2]: 97.5009% and 97.9227%
- remaining activity at 0.078125 µM ([1]; inhibitor 78.125 nM): 102%
- Residual activity of APC [1, 3]: 96.3711% and 96.6396%
- remaining activity at 0.15625 µM ([1]; inhibitor 156.25 nM): 102%
- Residual activity of APC [1, 4]: 97.5779% and 99.0137%
- remaining activity at 0.3125 µM ([1]; inhibitor 312.5 nM): 102%
- Residual activity of APC ([1]; inhibitor 312.5 nM, 0.3125 µM): 99.2982% and 100.044%
- remaining activity at 0.625 µM ([1]; inhibitor 625 nM): 103%
- Residual activity of APC ([1]; inhibitor 625 nM, 0.625 µM): 98.4851% and 100.174%
- remaining activity at 1.25 µM ([1]; inhibitor 1250 nM): 103%
- Residual activity of APC ([1]; inhibitor 1250 nM, 1.25 µM): 97.7747% and 100.567%
- remaining activity at […] ([1]; inhibitor 2500 nM): 102%
- remaining activity at 5 µM ([1]; inhibitor 5000 nM): 101%
- Residual activity of APC ([1]; inhibitor 5000 nM, 5 µM): 97.0131% and 99.7294%
- remaining activity at 10 µM ([1]; inhibitor 10000 nM): 101%
- Residual activity of APC ([1]; inhibitor 10000 nM, 10 µM): 97.8346% and 99.7294%
- remaining activity at 20 µM ([1]; inhibitor 20000 nM): 101%
- Residual activity of APC ([1]; inhibitor 20000 nM, 20 µM): 96.859% and 99.2406%
- remaining activity at 40 µM ([1]; inhibitor 40000 nM (40 µM)): 98.3 ± 2.3%
- Residual activity of APC [1, 5]: 100.29% and 95.7977% and 98.8915%
